A short description of test [1]: Inhibition of Escherichia coli parE assessed as release of inorganic phosphate from ATP hydrolysis after 30 mins by coupled spectrophotometric assay.
Test [2] relates to Escherichia coli. The test can be described thus: Antibacterial activity against Escherichia coli BW25113 harboring deltatolC by broth microdilution method. The test is classed as functional.
Test [3] relates to Escherichia coli. The test can be described thus: Antibacterial activity against permeabilized Escherichia coli IBAS849 by broth microdilution method. The test is classed as functional.
Test [4] deals with Escherichia coli. The test can be described thus: Antibacterial activity against wild type Escherichia coli ATCC 25922 by broth microdilution method. The test is classed as functional.
In test [5] the test system is Staphylococcus aureus. The test can be described thus: Antibacterial activity against Staphylococcus aureus ATCC 13709 by broth microdilution method. The test is classed as functional.
Test [6] is described as follows: Inhibition of Francisella tularensis GyrB assessed as release of inorganic phosphate from ATP hydrolysis after 30 mins by coupled spectrophotometric assay.

In brackets after ≈: the same amount, converted by molar mass.

In the case of `CCc1[nH]c2nc(Sc3cnc4nccnc4c3)nc(N3C[C@@H]4[C@H](C3)[C@@]4(N)C(N)=O)c2c1Cl`, the inhibitory constant (Ki) in test [1] is below 1 nM. The MIC in test [2] is 0.25 µg/mL (≈ 0.519 µM); in test [3], 2 µg/mL (≈ 4.15 µM); in test [4], above 64 µg/mL; in test [5], 0.25 µg/mL (≈ 0.519 µM).

As to `CCc1[nH]c2nc(Sc3cccnc3)nc(Cl)c2c1Cl`, the Ki in test [6] was 488 nM. In addition, the MIC in test [3] was above 64 µg/mL; in test [4], above 64 µg/mL; in test [5] it was 4 µg/mL (≈ 12.3 µM).

For the compound `CCc1[nH]c2nc(Sc3cnc4nccnc4c3)nc(N3CCC4(CCCN4)C3)c2c1Cl` (stereo not drawn), the Ki in test [1] was found to be 35 nM; in test [6], 6 nM. The minimum inhibitory concentration (MIC) was 8 µg/mL (≈ 17.1 µM) in test [2], 16 µg/mL (≈ 34.3 µM) in test [3], above 64 µg/mL in test [4] and 4 µg/mL (≈ 8.57 µM) in test [5].

As for `CCc1[nH]c2nc(Sc3cnc4nccnc4c3)nc(N3CC4CNC4C3)c2c1Cl` (stereo not drawn), the results for the Ki in test [1] and in test [6] were 2 nM and below 1 nM, respectively. The minimum inhibitory concentration (MIC) in test [2] is 1 µg/mL (≈ 2.28 µM); in test [3], 2 µg/mL (≈ 4.56 µM); in test [4], 16 µg/mL (≈ 36.5 µM); in test [5], 0.5 µg/mL (≈ 1.14 µM).

With `CCc1[nH]c2nc(Sc3cnc4nccnc4c3)nc(N3CC4CCNC4C3)c2c1Cl` (stereo not drawn), the Ki in test [1] was 6 nM; in test [6] it was below 1 nM. Further, the MIC in test [2] amounted to 2 µg/mL (≈ 4.42 µM); in test [3], 4 µg/mL (≈ 8.83 µM); in test [4] it was 32 µg/mL (≈ 70.6 µM); in test [5], 1 µg/mL (≈ 2.21 µM).

Turning to `CCc1[nH]c2nc(Sc3cnc4nccnc4c3)nc(N3CC4CNCC4C3)c2c1Cl` (stereo not drawn), the Ki in test [1] is 17 nM; in test [6], below 1 nM. Besides, the minimum inhibitory concentration (MIC) is 8 µg/mL (≈ 17.7 µM) in test [2], 8 µg/mL (≈ 17.7 µM) in test [3], above 64 µg/mL in test [4] and 2 µg/mL (≈ 4.42 µM) in test [5].

Turning to `CCNC(=O)NC1CN(c2nc(Sc3cnc4nccnc4c3)nc3[nH]c(CC)c(Cl)c23)C1`, the figures for the inhibitory constant (Ki) in test [1] and in test [6] were 2 nM and below 1 nM, respectively. The minimum inhibitory concentration (MIC) in test [2], in test [3], in test [4] and in test [5] was above 64 µg/mL each time.

As for `CCc1[nH]c2nc(Sc3cnc4nccnc4c3)nc(N3CC(NS(C)(=O)=O)C3)c2c1Cl`, the inhibitory constant (Ki) in test [1] is 9 nM; in test [6], below 1 nM. Moreover, the MIC in test [3] was 32 µg/mL (≈ 65.2 µM); in test [4], above 64 µg/mL; in test [5], 4 µg/mL (≈ 8.15 µM).

Turning to `CCc1[nH]c2nc(Sc3cnc4nccnc4c3)nc(N3CC(NC(=O)C4CC4)C3)c2c1Cl`, the results for the Ki in test [1] and in test [6] were 3 nM and below 1 nM, respectively. Further, the minimal inhibitory concentration (MIC) is 4 µg/mL (≈ 8.32 µM) in test [2], 8 µg/mL (≈ 16.6 µM) in test [3], above 64 µg/mL in test [4] and 1 µg/mL (≈ 2.08 µM) in test [5].

In the case of `CCc1[nH]c2nc(Sc3cnc4nccnc4c3)nc(N3CC(NC(=O)COC)C3)c2c1Cl`, the inhibition constant (Ki) was 10 nM in test [1] and below 1 nM in test [6]. The MIC in test [2] was 2 µg/mL (≈ 4.12 µM); in test [3] it was 4 µg/mL (≈ 8.25 µM); in test [4] it was above 64 µg/mL; in test [5], 0.25 µg/mL (≈ 0.515 µM).

`CCc1[nH]c2nc(Sc3cnc4nccnc4c3)nc(N3CC(NC(=O)c4cnccn4)C3)c2c1Cl`: the results for the inhibitory constant (Ki) in test [1] and in test [6] were 9 nM and below 1 nM, respectively. Further, the MIC in test [2] was 4 µg/mL (≈ 7.71 µM); in test [3] it was 8 µg/mL (≈ 15.4 µM); in test [4], 64 µg/mL (≈ 123 µM); in test [5], 1 µg/mL (≈ 1.93 µM).

Turning to `CCc1[nH]c2nc(Sc3cnc4nccnc4c3)nc(N3C[C@@H]4[C@H](C3)[C@H]4NC(=N)N)c2c1Cl`, the inhibition constant (Ki) in test [1] was below 1 nM. For the same compound, the minimal inhibitory concentration (MIC) in test [2] was 2 µg/mL (≈ 4.16 µM); in test [3], 2 µg/mL (≈ 4.16 µM); in test [4] it was 64 µg/mL (≈ 133 µM); in test [5], 0.25 µg/mL (≈ 0.52 µM).

For the compound `CCc1[nH]c2nc(Sc3cnc4nccnc4c3)nc(N3C[C@@H]4[C@H](C3)[C@@]4(N)CO)c2c1Cl`, the figures for the Ki in test [1] and in test [6] were 2 nM and below 1 nM, respectively. Besides, the MIC in test [2] was found to be 0.5 µg/mL (≈ 1.07 µM); in test [3], 4 µg/mL (≈ 8.53 µM); in test [4] it was 64 µg/mL (≈ 136 µM); in test [5], 0.25 µg/mL (≈ 0.533 µM).

These data come from ChEMBL document CHEMBL2331254, “Pyrrolopyrimidine inhibitors of DNA gyrase B (GyrB) and topoisomerase IV (ParE), Part II: development of inhibitors with broad spectrum, Gram-negative antibacterial activity” (Bioorg Med Chem Lett, 2013).
